The results in this text go back to patent US8808702B2, “Sulfide, sulfoxide and sulfone chalcone analogues, derivatives thereof and therapeutic uses thereof” (Temple University-of the Commonwealth System of Higher …, priority 2006, dated 2014).

For orientation: IC50 means the concentration at which inhibition is half-maximal.

Assay [1] concerns K562 (chronic myelogenous leukaemia). The assay can be described thus: Effect of compounds on tumor cell lines (assay of Latham et al.), K562. The format is cell-based. As to conditions: K562 cells, read-out: K 562 potency (IC50). Put shortly: (§1)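 K562 or DU145 cells plated at 2.5×10^4 cells/well, treated 24 h later with compound in DMSO at 1 μM to 100 μM (0.1 μM to 100 μM for one compound). Activity judged by microscopic observation after 96 h; where needed, viable cells counted by trypan blue exclusion.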

Assay [2] concerns DU145 (prostate cancer). The assay can be described thus: Effect of compounds on tumor cell lines (assay of Latham et al.), DU145. The format is cell-based. As to conditions: DU145 cells, read-out: DU 145 potency (IC50). Put shortly:
as §1

Setting [3] is: 96 hours after treatment, 1 μM to 100 μM.
[4] abbreviates: Table 3, examined 96 hours after treatment, 1 μM to 100 μM in DMSO.
[5] abbreviates: Homo sapiens, Table 4, examined 96 hours after treatment, 1 μM to 100 μM in DMSO.
[6] abbreviates: Homo sapiens, DU-145, Table 4, examined 96 hours after treatment, 1 μM to 100 μM in DMSO.
Setting [7] is: Table 4, examined 96 hours after treatment, 1 μM to 100 μM in DMSO.

The structures appear in SMILES notation. Like-named read-outs stand apart in the source and are kept apart here.

For `O=C(C(=Cc1ccc([N+](=O)[O-])cc1)SCc1ccc(Br)cc1)c1ccc(Br)cc1` [Example 320], the IC50 in assay [1] (setting [3]) and in assay [2] (setting [3]) was 1 to 10 µM throughout.
On to `O=C(C(=Cc1cccnc1)SCc1ccc(Cl)cc1)c1ccc(Br)cc1` [Example 321], for which the IC50 in assay [1] (setting [3]) and in assay [2] (setting [3]) was 1 to 10 µM in each case.
Turning to `O=C(C(=Cc1cccnc1)SCc1ccc(Cl)cc1)c1ccc(Cl)cc1` [Example 322], the IC50 in assay [1] (setting [3]) and in assay [2] (setting [3]) was 1 to 10 µM in each case.
For the compound `O=C(O)c1ccc(C=C(SCc2ccc(Cl)cc2)C(=O)c2ccc(C(=O)O)cc2)cc1` [Example 323], the IC50 in assay [1] (setting [3]) and in assay [2] (setting [3]) was more than 100 µM in each case.
For `O=C(C(=Cc1ccc(Cl)cc1)SCc1ccc(Cl)cc1)c1ccc(Cl)cc1` [Example 324], the IC50 in assay [1] (setting [3]) lay within 1 to 10 µM; in assay [2] (setting [3]), 10 to 25 µM.
Regarding `O=C(C(=Cc1ccc([N+](=O)[O-])cc1)SCc1ccc(Cl)cc1)c1ccc(Cl)cc1` [Example 326], the IC50 in assay [1] (setting [3]) and in assay [2] (setting [3]) was 1 to 10 µM each time.
Take `O=C(C(=Cc1ccc(C(F)(F)F)cc1)SCc1ccc(Cl)cc1)c1ccc(Cl)cc1` [Example 327]: the IC50 in assay [1] (setting [3]) and in assay [2] (setting [3]) was 1 to 10 µM each time.
In the case of `O=C(O)c1ccc(C(=O)C(=Cc2ccc(N3CCN(Cc4ccccc4)CC3)c([N+](=O)[O-])c2)SCc2ccc(F)cc2)cc1` [Example 328], the IC50 in assay [1] (setting [3]) and in assay [2] (setting [3]) was 1 to 10 µM each time.
Take `CN1CCN(CCNc2ccc(C=C(SCc3ccc(F)cc3)C(=O)c3ccc(F)cc3)cc2[N+](=O)[O-])CC1` [Example 329]: the 50% inhibitory concentration (IC50) in assay [1] (setting [3]) is not above 1 µM; in assay [2] (setting [3]), 1 to 10 µM.
`O=C(C(=Cc1ccc(N2CCN(CCO)CC2)c([N+](=O)[O-])c1)SCc1ccc(F)cc1)c1ccc(F)cc1` [Example 330]: the IC50 in assay [1] (setting [3]) was not above 1 µM; in assay [2] (setting [3]), 1 to 10 µM.
On the same counts, the results for `O=C(C(=Cc1ccc(C(=O)N2CCN(CCO)CC2)cc1)SCc1ccc(F)cc1)c1ccc(F)c([N+](=O)[O-])c1` [Example 331] are not above 1 µM and 1 to 10 µM.
Take `CC(=O)Nc1ccc(/C=C(/SCc2ccc(F)cc2)C(=O)c2ccc(C(=O)O)cc2)cc1[N+](=O)[O-]` [Example 332]: the values for the IC50 in assay [1] (setting [3]) and in assay [2] (setting [3]) were 1 to 10 µM and 10 to 25 µM, respectively.
In the case of `Nc1ccc(/C=C(/SCc2ccc(F)cc2)C(=O)c2ccc(C(=O)O)cc2)cc1[N+](=O)[O-]` [Example 333], the IC50 in assay [1] (setting [3]) and in assay [2] (setting [3]) was 10 to 25 µM each time.
As to `O=C(O)c1ccc(C(=O)/C(=C\c2ccc(Br)cc2)SCc2ccc(F)cc2)cc1` [Example 334], the IC50 in assay [1] (setting [3]) and in assay [2] (setting [3]) was more than 100 µM throughout.
Turning to `O=C(/C(=C\c1ccc(F)c([N+](=O)[O-])c1)SCc1ccc(F)cc1)c1ccc(SCc2ccc(F)cc2)c([N+](=O)[O-])c1` [Example 335], the results for the IC50 in assay [1] (setting [3]) and in assay [2] (setting [3]) were 1 to 10 µM and 10 to 25 µM, respectively.
As for `Cc1ccc(S(=O)(=O)Oc2ccc(C(=O)/C(=C\c3ccc(F)c([N+](=O)[O-])c3)SCc3ccc(F)cc3)cc2)cc1` [Example 336], the IC50 in assay [1] (setting [3]) and in assay [2] (setting [3]) was 1 to 10 µM in each case.
Consider `CN1CCN(CCNC(=O)c2ccc(C(=O)/C(=C\c3ccc(F)c([N+](=O)[O-])c3)SCc3ccc(F)cc3)cc2)CC1` [Example 337], for which the half-inhibitory concentration (IC50) in assay [1] (setting [3]) and in assay [2] (setting [3]) was 10 to 25 µM each time.
In the case of `CCN(CC)CCOc1ccc(C(=O)/C(=C\c2ccc(F)c([N+](=O)[O-])c2)SCc2ccc(F)cc2)cc1` [Example 338], the concentration for half-maximal inhibition (IC50) is not above 1 µM in assay [1] (setting [3]) and 1 to 10 µM in assay [2] (setting [3]).
The matching figures for `CC1=CC(=O)C(C)=C(C(C)(C)CC(=O)Oc2ccc(C(=O)/C(=C\c3ccc(F)c([N+](=O)[O-])c3)SCc3ccc(F)cc3)cc2)C1=O` [Example 339]: 1 to 10 µM and 1 to 10 µM.
With `O=C(/C(=C\c1ccc(F)c([N+](=O)[O-])c1)SCc1ccc(F)cc1)c1ccc(OCCCN2CCOCC2)cc1` [Example 340], the half-maximal inhibitory concentration (IC50) in assay [1] (setting [3]) and in assay [2] (setting [3]) was 1 to 10 µM each time.
In the case of `O=C(/C(=C\c1ccc(F)c([N+](=O)[O-])c1)SCc1ccc(F)cc1)c1ccc(F)cc1` [Example 341], the 50% inhibitory concentration (IC50) in assay [1] (setting [3]) is not above 1 µM; in assay [2] (setting [3]), 1 to 10 µM.
In the case of `O=C(/C(=C\c1ccc(F)c([N+](=O)[O-])c1)SCc1ccc(F)cc1)c1ccc(O)cc1` [Example 342], the half-maximal inhibitory concentration (IC50) in assay [1] (setting [3]) and in assay [2] (setting [3]) was not above 1 µM each time.
On to `NS(=O)(=O)c1ccc(C(=O)/C(=C\c2ccc(F)c([N+](=O)[O-])c2)SCc2ccc(F)cc2)cc1` [Example 343], for which the IC50 in assay [1] (setting [3]) and in assay [2] (setting [3]) was 1 to 10 µM throughout.
Consider `O=C(/C(=C\c1ccc(F)c([N+](=O)[O-])c1)SCc1ccc(F)cc1)c1ccccc1` [Example 344], for which the 50% inhibitory concentration (IC50) was not above 1 µM in assay [1] (setting [3]) and 1 to 10 µM in assay [2] (setting [3]).
Consider `COc1ccc(CS/C(=C/c2ccc(F)cc2)C(=O)c2ccc(Cl)cc2)cc1` [Example 345], for which the IC50 in assay [1] (setting [3]) is 1 to 10 µM; in assay [2] (setting [3]), 10 to 25 µM.
The matching figures for `COc1ccc(/C=C(/SCc2ccc(OC)cc2)C(=O)c2ccc(Cl)cc2)cc1` [Example 346]: 1 to 10 µM and 10 to 25 µM.
On the same counts, the results for `Cc1ccc(CS/C(=C/c2ccc(F)c([N+](=O)[O-])c2)C(=O)c2ccc(C(=O)O)cc2)cc1` [Example 347] are not above 1 µM and 1 to 10 µM.
On to `Cc1ccc(CS/C(=C/c2ccc(F)c([N+](=O)[O-])c2)C(=O)c2ccc(C(=O)O)cc2)cc1` [Example 348], for which the 50% inhibitory concentration (IC50) in assay [1] (setting [3]) fell in the range of 1 to 10 µM; in assay [2] (setting [3]), 10 to 25 µM.
As to `Cc1ccc(CS/C(=C/c2ccc(F)c([N+](=O)[O-])c2)C(=O)c2ccc(Cl)c([N+](=O)[O-])c2)cc1` [Example 349], the concentration for half-maximal inhibition (IC50) in assay [1] (setting [3]) is not above 1 µM; in assay [2] (setting [3]), 1 to 10 µM.
With `O=C(O)c1ccc(C(=O)/C(=C\c2ccc(Cl)c([N+](=O)[O-])c2)SCc2ccc(C(F)(F)F)cc2)cc1` [Example 350], the IC50 in assay [1] (setting [3]) and in assay [2] (setting [3]) was 1 to 10 µM in each case.
Consider `O=C(O)c1ccc(C(=O)/C(=C\c2ccc(F)c([N+](=O)[O-])c2)SCc2ccc(C(F)(F)F)cc2)cc1` [Example 351], for which the concentration for half-maximal inhibition (IC50) in assay [1] (setting [3]) is not above 1 µM; in assay [2] (setting [3]), 1 to 10 µM.
Regarding `O=C(O)c1ccc(C(=O)/C(=C\c2ccc(F)c([N+](=O)[O-])c2)SCc2nc3ccc(Br)cc3[nH]2)cc1` [Example 352], the half-maximal inhibitory concentration (IC50) in assay [1] (setting [3]) and in assay [2] (setting [3]) was 1 to 10 µM throughout.
`O=C(O)c1ccc(C(=O)/C(=C\c2ccc(F)c([N+](=O)[O-])c2)SCc2ccccc2)cc1` [Example 353]: the IC50 in assay [1] (setting [3]) is not above 1 µM; in assay [2] (setting [3]) it was 1 to 10 µM.
For the compound `COc1cc(OC)c(/C=C(\C(=O)c2ccc(Cl)cc2)[S+]([O-])Cc2ccccc2Cl)c(OC)c1` (stereo not drawn) [Example 354], the results for the IC50 in assay [1] (setting [4]) and in assay [2] (setting [4]) were 50 to 100 µM and 10 to 25 µM, respectively.
Consider `O=C(/C(=C\c1ccc(F)cc1C(F)(F)F)[S+]([O-])Cc1ccc(Cl)cc1)c1ccc(Cl)cc1` (stereo not drawn) [Example 355], for which the 50% inhibitory concentration (IC50) in assay [1] (setting [4]) and in assay [2] (setting [4]) was 50 to 100 µM in each case.
Regarding `O=C(/C(=C\c1cc(Br)c(O)c(Br)c1)S(=O)(=O)Cc1ccc(Br)cc1)c1ccc(Br)cc1` [Example 368], the IC50 in assay [1] (setting [5]) and in assay [2] (setting [6]) was 25 to 50 µM each time.
Consider `O=C(/C(=C\c1cc(Cl)c(O)c(Cl)c1)S(=O)(=O)Cc1ccc(Br)cc1)c1ccc(Br)cc1` [Example 369], for which the half-maximal inhibitory concentration (IC50) in assay [1] (setting [5]) and in assay [2] (setting [6]) was 25 to 50 µM each time.
Regarding `CCN(CC)CCNC(=O)c1c(C)[nH]c(/C=C(\C(=O)c2ccc(Br)cc2)S(=O)(=O)Cc2ccc(Br)cc2)c1C` [Example 370], the IC50 in assay [1] (setting [7]) and in assay [2] (setting [7]) was 1 to 10 µM in each case.
`O=C(O)c1ccc(C(=O)/C(=C\c2ccc(Cl)c([N+](=O)[O-])c2)S(=O)(=O)Cc2ccc(Br)cc2)cc1` [Example 372]: the 50% inhibitory concentration (IC50) in assay [1] (setting [5]) and in assay [2] (setting [6]) was 25 to 50 µM each time.
On to `O=C(/C(=C\c1ccc(O)c([N+](=O)[O-])c1)S(=O)(=O)Cc1ccc(Br)cc1)c1c(F)c(F)c(F)c(F)c1F` [Example 373], for which the IC50 in assay [1] (setting [7]) and in assay [2] (setting [7]) was 50 to 100 µM each time.
As for `O=C(/C(=C\c1ccc(O)c([N+](=O)[O-])c1)S(=O)(=O)Cc1ccc(Cl)cc1)c1ccc(Cl)cc1` [Example 393], the IC50 in assay [1] (setting [7]) and in assay [2] (setting [7]) was 25 to 50 µM each time.
As to `O=C(/C(=C\c1ccc(Br)cc1)S(=O)(=O)Cc1ccc(F)cc1)c1ccc(Cl)cc1` [Example 410], the IC50 in assay [1] (setting [5]) is 50 to 100 µM; in assay [2] (setting [6]), more than 100 µM.
With `COc1ccccc1/C=C(\C(=O)c1ccc(Cl)cc1)S(=O)(=O)Cc1ccc(C)cc1` [Example 428], the IC50 in assay [1] (setting [5]) and in assay [2] (setting [6]) was 10 to 25 µM throughout.
With `CSc1ccc(/C=C(\C(=O)c2ccc(Br)cc2)S(=O)(=O)Cc2ccc(C)cc2)cc1` [Example 436], the concentration for half-maximal inhibition (IC50) in assay [1] (setting [5]) and in assay [2] (setting [6]) was 10 to 25 µM in each case.
As to `COC(=O)c1ccc(C(=O)/C(=C\c2ccc(F)c([N+](=O)[O-])c2)SCc2ccc(Br)cc2)cc1` [Example 441, (E)-methyl-4-(2-(4-bromobenzylthio)-3-(4-fluoro-3-nitrophenyl)acryloyl)benzoate], the IC50 is not above 1 µM in assay [1] (Homo sapiens, Table 5, examined 96 hours after treatment, 0.1 μM to 100 μM in DMSO) and not above 1 µM in assay [2] (Homo sapiens, DU-145, Table 5, examined 96 hours after treatment, 0.1 μM to 100 μM in DMSO).
